Data on four compounds can be found in ChEMBL document CHEMBL1201862, “PubChem BioAssay data set” (2004).

Calls of active or inactive are those of the source.

Assay [1] has as its target T1, Histone-lysine N-methyltransferase NSD2 (Homo sapiens, UniProt O96028).
T1 sequence (O96028 whole entry): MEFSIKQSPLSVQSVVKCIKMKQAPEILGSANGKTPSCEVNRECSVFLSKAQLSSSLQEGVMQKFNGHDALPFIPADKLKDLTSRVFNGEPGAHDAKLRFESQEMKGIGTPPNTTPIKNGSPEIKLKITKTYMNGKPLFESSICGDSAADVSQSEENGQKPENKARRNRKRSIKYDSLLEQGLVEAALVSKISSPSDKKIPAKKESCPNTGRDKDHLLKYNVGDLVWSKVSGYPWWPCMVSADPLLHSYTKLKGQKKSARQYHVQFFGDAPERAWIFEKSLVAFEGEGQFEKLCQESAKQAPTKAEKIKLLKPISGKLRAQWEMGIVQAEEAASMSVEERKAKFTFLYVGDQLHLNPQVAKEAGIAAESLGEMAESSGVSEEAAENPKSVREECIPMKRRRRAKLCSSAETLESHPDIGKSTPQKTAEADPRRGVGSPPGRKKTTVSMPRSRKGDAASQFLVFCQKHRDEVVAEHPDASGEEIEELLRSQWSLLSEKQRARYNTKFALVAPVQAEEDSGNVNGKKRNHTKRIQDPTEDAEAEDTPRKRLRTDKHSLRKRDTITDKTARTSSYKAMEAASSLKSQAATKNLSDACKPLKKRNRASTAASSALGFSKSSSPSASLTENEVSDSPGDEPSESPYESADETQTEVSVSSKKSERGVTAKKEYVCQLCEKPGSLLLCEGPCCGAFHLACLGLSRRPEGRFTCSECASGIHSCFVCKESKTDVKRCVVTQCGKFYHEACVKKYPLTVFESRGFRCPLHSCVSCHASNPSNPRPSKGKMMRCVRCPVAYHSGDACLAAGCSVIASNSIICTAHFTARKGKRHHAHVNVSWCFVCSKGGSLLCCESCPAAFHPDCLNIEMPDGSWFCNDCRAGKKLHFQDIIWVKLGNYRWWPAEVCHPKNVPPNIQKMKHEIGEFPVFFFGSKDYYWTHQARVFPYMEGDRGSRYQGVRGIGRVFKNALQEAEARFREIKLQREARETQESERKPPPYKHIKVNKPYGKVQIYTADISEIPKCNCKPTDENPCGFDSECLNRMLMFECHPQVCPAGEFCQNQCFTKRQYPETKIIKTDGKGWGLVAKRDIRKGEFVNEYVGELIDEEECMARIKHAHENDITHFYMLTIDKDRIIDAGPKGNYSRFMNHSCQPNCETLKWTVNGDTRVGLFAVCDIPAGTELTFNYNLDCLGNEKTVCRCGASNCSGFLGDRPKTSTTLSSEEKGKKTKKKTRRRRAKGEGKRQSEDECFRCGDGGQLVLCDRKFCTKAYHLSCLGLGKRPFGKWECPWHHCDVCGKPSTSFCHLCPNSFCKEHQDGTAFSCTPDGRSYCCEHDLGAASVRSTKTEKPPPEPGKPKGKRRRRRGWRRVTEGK
The assay is classed as biochemical.

In assay [2] the target is Fibroblast growth factor receptor 1 (Homo sapiens, UniProt P11362). The assay is classed as functional.
The target in assay [3] is Tyrosine-protein kinase ABL1 (Homo sapiens, UniProt P00519). In kind it is functional.
The target in assay [4] is Death-associated protein kinase 3 (Homo sapiens, UniProt O43293). The assay is classed as functional.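 Also: measured as one member of a kinome-wide profiling panel.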
Chain of Death-associated protein kinase 3 (O43293 whole entry): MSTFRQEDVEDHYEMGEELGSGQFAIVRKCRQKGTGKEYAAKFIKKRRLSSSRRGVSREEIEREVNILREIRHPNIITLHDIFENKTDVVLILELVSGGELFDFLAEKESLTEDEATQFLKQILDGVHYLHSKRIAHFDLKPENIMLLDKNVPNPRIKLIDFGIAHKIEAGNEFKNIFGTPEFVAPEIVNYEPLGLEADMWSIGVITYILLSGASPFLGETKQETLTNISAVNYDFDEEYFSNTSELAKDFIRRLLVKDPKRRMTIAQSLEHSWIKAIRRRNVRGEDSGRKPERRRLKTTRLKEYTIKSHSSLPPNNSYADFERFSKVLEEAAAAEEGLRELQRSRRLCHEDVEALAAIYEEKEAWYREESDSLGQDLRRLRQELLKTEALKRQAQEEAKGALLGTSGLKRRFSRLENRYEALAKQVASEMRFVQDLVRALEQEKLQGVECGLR
For assay [5], the target named is Hepatocyte growth factor receptor (Homo sapiens, UniProt P08581). The assay is classed as functional.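 Also: kinase panel profiling across the kinome, with MET as the panel member.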
The target in assay [6] is Serine/threonine-protein kinase Nek2 (Homo sapiens, UniProt P51955). The assay is classed as functional.
Chain of Serine/threonine-protein kinase Nek2 (P51955 whole entry): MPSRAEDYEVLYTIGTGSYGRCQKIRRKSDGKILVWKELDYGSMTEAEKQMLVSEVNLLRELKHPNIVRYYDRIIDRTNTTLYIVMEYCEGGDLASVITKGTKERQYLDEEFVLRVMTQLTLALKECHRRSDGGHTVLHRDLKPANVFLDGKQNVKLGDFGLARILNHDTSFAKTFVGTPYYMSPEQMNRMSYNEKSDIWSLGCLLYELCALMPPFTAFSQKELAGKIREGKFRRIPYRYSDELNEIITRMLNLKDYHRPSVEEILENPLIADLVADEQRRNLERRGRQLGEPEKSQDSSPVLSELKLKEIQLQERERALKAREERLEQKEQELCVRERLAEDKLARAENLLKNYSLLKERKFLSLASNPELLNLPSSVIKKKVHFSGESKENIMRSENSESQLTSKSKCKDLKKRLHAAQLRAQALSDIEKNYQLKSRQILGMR
Assay [7] deals with High affinity nerve growth factor receptor (Homo sapiens, UniProt P04629). In kind it is functional.
Assay [8] deals with Glycogen synthase kinase-3 beta (Homo sapiens, UniProt P49841). The assay is classed as functional.
Chain of Glycogen synthase kinase-3 beta (P49841 whole entry): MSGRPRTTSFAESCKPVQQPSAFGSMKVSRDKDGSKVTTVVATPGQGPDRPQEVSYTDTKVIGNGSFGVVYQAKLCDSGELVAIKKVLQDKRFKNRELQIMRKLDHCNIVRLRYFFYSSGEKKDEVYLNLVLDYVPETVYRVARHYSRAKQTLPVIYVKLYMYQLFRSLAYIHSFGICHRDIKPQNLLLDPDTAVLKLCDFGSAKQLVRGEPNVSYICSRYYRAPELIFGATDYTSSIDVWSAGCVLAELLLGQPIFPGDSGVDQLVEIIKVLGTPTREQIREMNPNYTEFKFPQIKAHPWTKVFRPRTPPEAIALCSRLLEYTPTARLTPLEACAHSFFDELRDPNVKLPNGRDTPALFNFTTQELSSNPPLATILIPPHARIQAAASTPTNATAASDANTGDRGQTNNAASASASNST
The target of assay [9] is Tyrosine-protein kinase JAK2 (Homo sapiens, UniProt O60674). The assay is classed as functional.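 Also: JAK2 tested as one member of a kinase panel.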
The target in assay [10] is Glycogen synthase kinase-3 alpha (Homo sapiens, UniProt P49840). The assay is classed as functional.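 Also: GSK3A result taken from a broad kinome-wide kinase panel.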
For assay [11], the target named is Mitogen-activated protein kinase 9 (Homo sapiens, UniProt P45984). In kind it is functional.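 Also: value from a kinome panel profiling assay, MAPK9 panel entry.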
Assay [12] addresses Cyclin-dependent kinase 5 (Homo sapiens, UniProt Q00535). In kind it is functional.
For assay [13], the target named is Receptor-type tyrosine-protein kinase FLT3 (Homo sapiens, UniProt P36888). The assay is classed as functional.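 Also: FLT3 was tested as one member of a kinome-wide kinase panel.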
In assay [14] the target is Mitogen-activated protein kinase 8 (Homo sapiens, UniProt P45983). The assay is classed as functional.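 Also: value comes from one member of a kinome-wide kinase profiling panel.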
Chain of Mitogen-activated protein kinase 8 (P45983 whole entry): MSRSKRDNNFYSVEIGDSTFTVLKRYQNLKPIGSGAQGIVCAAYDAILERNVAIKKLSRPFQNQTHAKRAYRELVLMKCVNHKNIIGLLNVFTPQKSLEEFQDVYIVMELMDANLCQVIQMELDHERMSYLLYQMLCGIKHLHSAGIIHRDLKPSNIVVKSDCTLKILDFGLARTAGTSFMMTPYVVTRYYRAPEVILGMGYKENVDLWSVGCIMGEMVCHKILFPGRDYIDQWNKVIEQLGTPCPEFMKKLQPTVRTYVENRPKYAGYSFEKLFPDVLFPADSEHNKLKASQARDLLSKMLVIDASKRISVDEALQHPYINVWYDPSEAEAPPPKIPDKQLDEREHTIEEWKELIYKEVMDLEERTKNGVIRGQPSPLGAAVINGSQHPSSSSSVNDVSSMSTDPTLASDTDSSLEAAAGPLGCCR
In assay [15] the target is Tyrosine-protein kinase Fyn (Homo sapiens, UniProt P06241). The assay is classed as functional.
The target in assay [16] is 5'-AMP-activated protein kinase catalytic subunit alpha-1 (Homo sapiens, UniProt Q13131). The assay is classed as functional.
The target of assay [17] is Serine/threonine-protein kinase pim-1 (Homo sapiens, UniProt P11309). In kind it is functional.
Assay [18] addresses Tyrosine-protein kinase JAK3 (Homo sapiens, UniProt P52333). In kind it is functional.
In assay [19] the target is Ribosomal protein S6 kinase alpha-3 (Homo sapiens, UniProt P51812). In kind it is functional.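 Also: measured within a kinome-wide profiling panel.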
Chain of Ribosomal protein S6 kinase alpha-3 (P51812 whole entry): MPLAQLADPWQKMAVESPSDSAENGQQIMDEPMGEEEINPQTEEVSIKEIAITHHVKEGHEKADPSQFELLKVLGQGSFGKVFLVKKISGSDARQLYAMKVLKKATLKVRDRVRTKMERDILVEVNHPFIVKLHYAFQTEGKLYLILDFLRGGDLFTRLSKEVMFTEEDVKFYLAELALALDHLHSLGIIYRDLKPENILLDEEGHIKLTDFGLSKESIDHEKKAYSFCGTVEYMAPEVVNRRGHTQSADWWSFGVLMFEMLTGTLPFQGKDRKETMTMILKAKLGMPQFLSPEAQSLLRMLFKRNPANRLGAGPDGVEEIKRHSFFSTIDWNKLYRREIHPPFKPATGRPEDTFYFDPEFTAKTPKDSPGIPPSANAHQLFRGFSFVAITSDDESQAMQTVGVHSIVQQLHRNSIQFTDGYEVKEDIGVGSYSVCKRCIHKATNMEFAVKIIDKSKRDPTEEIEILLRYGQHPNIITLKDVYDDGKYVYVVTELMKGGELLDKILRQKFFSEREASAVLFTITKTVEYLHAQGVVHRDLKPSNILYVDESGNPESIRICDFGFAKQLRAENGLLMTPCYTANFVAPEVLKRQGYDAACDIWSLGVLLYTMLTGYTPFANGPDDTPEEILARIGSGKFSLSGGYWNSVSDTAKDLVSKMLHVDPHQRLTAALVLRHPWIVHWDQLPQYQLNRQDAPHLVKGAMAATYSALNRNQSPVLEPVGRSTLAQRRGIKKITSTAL
Assay [20] has as its target Vascular endothelial growth factor receptor 1 (Homo sapiens, UniProt P17948). The assay is classed as functional.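 Also: measured within a kinome-wide profiling panel, FLT1 as the panel member.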
Assay [21] addresses Insulin-like growth factor 1 receptor (Homo sapiens, UniProt P08069). Put plainly: Navigating the Kinome. Panel member name: IGF1R. In kind it is functional.
The target of assay [22] is Macrophage colony-stimulating factor 1 receptor (Homo sapiens, UniProt P07333). In kind it is functional.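 Also: value comes from the Navigating the Kinome screening panel, CSF1R member.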
In assay [23] the target is Tyrosine-protein kinase Lck (Homo sapiens, UniProt P06239). In kind it is functional.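 Also: lck was assayed as one member of a kinase panel.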
Assay [24] deals with BDNF/NT-3 growth factors receptor (Homo sapiens, UniProt Q16620). The assay is classed as functional.
The next assay has as its target Aurora kinase B (Homo sapiens, UniProt Q96GD4). In kind it is functional.
Assay [25] has as its target cAMP-dependent protein kinase catalytic subunit alpha (Homo sapiens, UniProt P17612). The assay is classed as functional.
Another assay concerns the target Aurora kinase A (Homo sapiens, UniProt O14965). In kind it is functional.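 Also: value from the Navigating the Kinome kinase panel profiling, panel entry STK6.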
For assay [26], the target named is Serine/threonine-protein kinase PAK 4 (Homo sapiens, UniProt O96013). The assay is classed as functional.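 Also: value obtained within a kinome profiling panel in which PAK4 was one of the panel members.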
Chain of Serine/threonine-protein kinase PAK 4 (O96013 whole entry): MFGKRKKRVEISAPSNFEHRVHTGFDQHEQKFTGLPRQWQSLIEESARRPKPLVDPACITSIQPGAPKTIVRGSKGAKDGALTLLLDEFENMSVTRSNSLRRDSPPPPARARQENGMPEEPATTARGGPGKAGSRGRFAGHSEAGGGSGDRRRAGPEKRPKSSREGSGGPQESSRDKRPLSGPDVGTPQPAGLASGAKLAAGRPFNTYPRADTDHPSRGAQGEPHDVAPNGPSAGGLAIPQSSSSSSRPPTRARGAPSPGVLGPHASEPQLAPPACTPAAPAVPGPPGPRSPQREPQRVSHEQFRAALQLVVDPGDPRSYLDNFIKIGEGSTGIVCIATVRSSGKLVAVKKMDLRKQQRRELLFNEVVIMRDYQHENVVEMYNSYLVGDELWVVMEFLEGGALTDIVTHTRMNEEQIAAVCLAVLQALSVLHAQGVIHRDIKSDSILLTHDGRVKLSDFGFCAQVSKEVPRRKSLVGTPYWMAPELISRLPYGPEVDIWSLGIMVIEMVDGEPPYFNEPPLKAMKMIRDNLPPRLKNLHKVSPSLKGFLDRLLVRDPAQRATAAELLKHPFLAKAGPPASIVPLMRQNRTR

Chain of Vascular endothelial growth factor receptor 1 (P17948 whole entry): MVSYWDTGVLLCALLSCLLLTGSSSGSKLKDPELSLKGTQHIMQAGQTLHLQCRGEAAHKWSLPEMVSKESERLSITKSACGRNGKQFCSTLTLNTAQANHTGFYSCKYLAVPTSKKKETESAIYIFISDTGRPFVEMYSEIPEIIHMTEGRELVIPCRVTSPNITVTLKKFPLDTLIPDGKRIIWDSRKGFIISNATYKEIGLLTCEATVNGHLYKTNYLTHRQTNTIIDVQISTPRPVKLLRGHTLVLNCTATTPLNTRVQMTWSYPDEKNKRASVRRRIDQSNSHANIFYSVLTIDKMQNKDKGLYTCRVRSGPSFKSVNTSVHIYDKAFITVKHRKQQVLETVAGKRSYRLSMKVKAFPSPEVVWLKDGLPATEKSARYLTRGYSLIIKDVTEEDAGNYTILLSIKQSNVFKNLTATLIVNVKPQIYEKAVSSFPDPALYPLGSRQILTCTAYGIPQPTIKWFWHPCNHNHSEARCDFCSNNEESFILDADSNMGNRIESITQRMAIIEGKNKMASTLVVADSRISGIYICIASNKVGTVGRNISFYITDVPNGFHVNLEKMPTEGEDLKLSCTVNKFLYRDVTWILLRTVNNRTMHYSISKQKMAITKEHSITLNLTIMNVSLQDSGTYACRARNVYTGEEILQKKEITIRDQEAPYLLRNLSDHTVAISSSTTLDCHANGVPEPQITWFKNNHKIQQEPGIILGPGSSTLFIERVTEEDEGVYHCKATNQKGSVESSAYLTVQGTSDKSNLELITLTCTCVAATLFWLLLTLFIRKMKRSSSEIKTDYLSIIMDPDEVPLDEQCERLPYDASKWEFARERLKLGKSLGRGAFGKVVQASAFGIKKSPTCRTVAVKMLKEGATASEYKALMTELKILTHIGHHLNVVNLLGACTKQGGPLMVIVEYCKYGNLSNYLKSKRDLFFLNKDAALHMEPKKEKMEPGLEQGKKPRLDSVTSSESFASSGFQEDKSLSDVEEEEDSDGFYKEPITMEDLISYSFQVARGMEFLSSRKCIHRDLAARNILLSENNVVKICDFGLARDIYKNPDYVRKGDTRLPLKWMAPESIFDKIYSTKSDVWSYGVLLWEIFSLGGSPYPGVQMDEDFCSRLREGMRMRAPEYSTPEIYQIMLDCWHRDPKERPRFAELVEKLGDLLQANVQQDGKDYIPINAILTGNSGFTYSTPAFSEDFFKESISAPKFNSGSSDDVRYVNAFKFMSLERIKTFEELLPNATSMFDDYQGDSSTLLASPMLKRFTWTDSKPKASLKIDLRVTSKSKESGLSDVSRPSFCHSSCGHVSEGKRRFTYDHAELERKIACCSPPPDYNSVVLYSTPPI
Chain of Aurora kinase A (O14965 whole entry): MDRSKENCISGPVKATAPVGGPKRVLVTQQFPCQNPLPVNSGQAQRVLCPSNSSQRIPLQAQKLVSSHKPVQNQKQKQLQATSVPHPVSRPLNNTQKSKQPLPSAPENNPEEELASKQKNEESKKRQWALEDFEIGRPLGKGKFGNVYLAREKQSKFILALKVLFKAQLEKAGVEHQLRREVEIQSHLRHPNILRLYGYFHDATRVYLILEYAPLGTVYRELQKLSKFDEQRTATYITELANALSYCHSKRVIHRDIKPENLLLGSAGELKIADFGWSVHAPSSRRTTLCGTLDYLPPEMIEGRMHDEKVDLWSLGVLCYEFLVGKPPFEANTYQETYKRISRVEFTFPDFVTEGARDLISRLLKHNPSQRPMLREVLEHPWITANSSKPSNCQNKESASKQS

For `O=C1C=C(NCc2ccccc2)c2ccccc2C1=O`, the AC50 (in general, the midpoint of the concentration-response curve, whichever way the signal moves) in assay [1] is 2.16 µM (active).
As to `O=C(O)c1[nH]c2ccccc2c1C(c1cc(Cl)cc([N+](=O)[O-])c1O)c1c(C(=O)O)[nH]c2ccccc12`, the AC50 in assay [1] is 16.6 µM (active).
On to `CCOC(=O)c1cn(-c2ccc(O)cc2C)c2cc(-c3ccncc3)ccc2c1=O`, for which the Ki (as a rule, the equilibrium dissociation constant of an inhibitor or competing ligand from its target) is > 5.01 µM (inactive) in assay [2]; > 0.631 µM (inactive) in assay [3]; > 1.26 µM (inactive) in assay [4]; > 3.16 µM (inactive) in [5]; > 10 µM (inactive) in assay [6]; > 2.51 µM (inactive) in assay [7]. Moreover, the Ki in [8] was > 6.31 µM (inactive); in assay [9] it was > 1.58 µM (inactive); in assay [10] it was 7.94 µM (active); in assay [11], > 3.98 µM (inactive); in assay [12], 5.01 µM (active); in [13] it was > 2.51 µM (inactive). Further, the Ki is > 3.16 µM (inactive) in assay [14]; > 0.794 µM (inactive) in assay [15]; > 10 µM (inactive) in [16]; > 10 µM (inactive) in assay [17]; > 1.58 µM (inactive) in assay [18]; > 7.94 µM (inactive) in assay [19]. Also, the Ki was > 0.398 µM (inactive) in [20]; > 1 µM (inactive) in assay [21]; > 2.51 µM (inactive) in [22]; > 2.51 µM (inactive) in [23]; > 5.01 µM (inactive) in assay [24]; > 6.31 µM (inactive) on Aurora kinase B. Besides, the Ki in [25] was 1.26 µM (active); on Aurora kinase A, > 6.31 µM (inactive); in assay [26] it was > 5.01 µM (inactive).
Consider `Cc1cc(=O)[nH]nc1-c1ccc(NC(=O)Nc2cc(C(F)(F)F)ccc2F)c(Cl)c1`, for which the Ki in assay [2] is > 3.98 µM (inactive); in assay [3], > 2.51 µM (inactive); in [4] it was > 5.01 µM (inactive); in assay [5] it was > 2.51 µM (inactive); in assay [6], > 3.16 µM (inactive); in [7] it was 0.0631 µM (active). In addition, the Ki in [8] is > 3.98 µM (inactive); in assay [9], > 2.51 µM (inactive); in [10], > 3.98 µM (inactive); in assay [11] it was > 3.98 µM (inactive); in assay [12] it was > 3.16 µM (inactive); in [13], > 3.16 µM (inactive). Also, the Ki was > 5.01 µM (inactive) in assay [14]; > 6.31 µM (inactive) in assay [15]; > 3.16 µM (inactive) in assay [16]; > 6.31 µM (inactive) in assay [17]; > 5.01 µM (inactive) in assay [18]; > 3.98 µM (inactive) in assay [19]. In addition, the Ki is > 3.98 µM (inactive) in [20]; > 2.51 µM (inactive) in [21]; > 2.51 µM (inactive) in [22]; > 6.31 µM (inactive) in assay [23]; 0.01 µM (active) in assay [24]; > 3.98 µM (inactive) at Aurora kinase B. For the same compound, the Ki is > 1.26 µM (inactive) in assay [25], > 1.58 µM (inactive) at Aurora kinase A and > 5.01 µM (inactive) in assay [26].
